Activity calls are given as the source filed them. The calls are words filed in the database; no cut-off is given here.
Tests used:
[1] = Cytotoxicity against HEK293T cells incubated for 48 hrs; type: toxicity, cell-based, HEK-293T; conditions: human
MOLM-13 [2] = assay: Induction of apoptosis in human MOLM-13 cells assessed as late apoptotic cells at 0.1 uM incubated for 48 hrs by Annexin V-FITC staining based flow cytometry analysis (reference value: 1.40 %); type: functional
MOLM-13 [3] = assay: Induction of cell cycle arrest in human MOLM-13 cells assessed as accumulation of cells at G0/G1 phase at 0.05 uM measured for 48 hrs in presence of gilteritinib by PI/RNase staining based flow cytometric analysis (reference value: 46.24 %); type: functional
MOLM-13 [4] = assay: Induction of apoptosis in human MOLM-13 cells assessed as necrotic cells at 0.1 uM incubated for 48 hrs in presence of gilteritinib by Annexin V-FITC staining based flow cytometry analysis (reference value: 0.013 %); type: functional
MOLM-13 [5] = assay: Induction of apoptosis in human MOLM-13 cells assessed as early apoptotic cells at 0.1 uM incubated for 48 hrs by Annexin V-FITC staining based flow cytometry analysis (reference value: 4.07 %); type: functional
MOLM-13 [6] = assay: Induction of cell cycle arrest in human MOLM-13 cells assessed as accumulation of cells at G2M phase at 0.05 uM measured for 48 hrs in presence of gilteritinib by PI/RNase staining based flow cytometric analysis (reference value: 10.81%); type: functional
MOLM-13 [7] = assay: Induction of cell cycle arrest in human MOLM-13 cells assessed as accumulation of cells at G2M phase at 0.05 uM measured for 48 hrs by PI/RNase staining based flow cytometric analysis (reference value: 10.81%); type: functional
[8] = Toxicity in BALB/c mouse xenografted with human MOLM-13 cells assessed as lung damage at 30 mg/kg, IG qd administered 5 days a week and measured on day 9 in presence of gilteritinib by H and E staining based analysis; type: organism-based; conditions: in vivo, po, 216 h, time 9 day
MOLM-13 [9] = assay: Induction of apoptosis in human MOLM-13 cells assessed as early apoptotic cells at 0.1 uM incubated for 48 hrs in presence of gilteritinib by Annexin V-FITC staining based flow cytometry analysis (reference value: 4.07 %); type: functional
MOLM-13 [10] = assay: Induction of apoptosis in human MOLM-13 cells assessed as viable cells at 0.1 uM incubated for 48 hrs in presence of gilteritinib by Annexin V-FITC staining based flow cytometry analysis (reference value: 94.5 %); type: functional
MOLM-13 [11] = assay: Induction of cell cycle arrest in human MOLM-13 cells assessed as accumulation of cells at S-phase at 0.05 uM measured for 48 hrs in presence of gilteritinib by PI/RNase staining based flow cytometric analysis (reference value: 42.95%); type: functional
[12] = Toxicity in BALB/c mouse xenografted with human MOLM-13 cells assessed as body weight loss at 30 mg/kg, IG qd administered 5 days a week and measured on day 9 in presence of gilteritinib; type: organism-based; conditions: in vivo, po, 216 h, time 9 day
MOLM-13 [13] = assay: Induction of apoptosis in human MOLM-13 cells assessed as necrotic at 0.1 uM incubated for 48 hrs by Annexin V-FITC staining based flow cytometry analysis (reference value: 0.013 %); type: functional
MOLM-13 [14] = assay: Induction of cell cycle arrest in human MOLM-13 cells assessed as accumulation of cells at S-phase at 0.05 uM measured for 48 hrs by PI/RNase staining based flow cytometric analysis (reference value: 42.95%); type: functional
MOLM-13 [15] = assay: Induction of apoptosis in human MOLM-13 cells assessed as viable cells at 0.1 uM incubated for 48 hrs by Annexin V-FITC staining based flow cytometry analysis (reference value: 94.5 %); type: functional
MOLM-13 [16] = assay: Induction of cell cycle arrest in human MOLM-13 cells assessed as accumulation of cells at G0/G1 phase at 0.05 uM measured for 48 hrs by PI/RNase staining based flow cytometric analysis (reference value: 46.24 %); type: functional
[17] = Toxicity in NOD/SCID mouse xenografted with human MOLM-13 cells assessed as increase in survival rate at 60 mg/kg, IG administered 5 days per week in presence of gilteritinib by Kaplan Mayer survival analysis; type: organism-based; conditions: in vivo, po, 120 h, time 5 day
MOLM-13 [18] = assay: Induction of apoptosis in human MOLM-13 cells assessed as late apoptotic cells at 0.1 uM incubated for 48 hrs in presence of gilteritinib by Annexin V-FITC staining based flow cytometry analysis (reference value: 1.40 %); type: functional
MOLM-13 [19] = assay: Inhibition of ERK1/2 phosphorylation in human MOLM-13 cells at 0.01 to 0.1 microM by Western blot analysis; type: cell-based; conditions: dose 0.01-0.1 µM
MOLM-13 [20] = assay: Antitumor activity against human MOLM-13 cells xenografted BALB/c mouse assessed as reduction in tumor volume at 10 mg/kg, IG qd administered 5 days a week and measured on day 9; type: functional, organism-based; conditions: time 9.0 day
K562 = assay: Antiproliferative activity against human K562 cells incubated for 48 hrs; conditions: K562, 48 h
Mitochondrial membrane = assay: Induction of mitochondrial membrane potential depolarization in human MOLM-13 cells; type: cell membranes; conditions: dose 0.1 µM
[21] = Toxicity in BALB/c mouse xenografted with human MOLM-13 cells assessed as body weight loss at 10 mg/kg, IG qd administered 5 days a week and measured on day 9; type: organism-based; conditions: in vivo, po, 216 h, time 9 day
[22] = target: T1, Receptor-type tyrosine-protein kinase FLT3 (Homo sapiens, UniProt P36888); assay: Inhibition of FLT3 (unknown origin) incubated for 40 mins in presence of ATP by kinase-glo plus luminescence assay
T1 sequence (P36888 whole entry): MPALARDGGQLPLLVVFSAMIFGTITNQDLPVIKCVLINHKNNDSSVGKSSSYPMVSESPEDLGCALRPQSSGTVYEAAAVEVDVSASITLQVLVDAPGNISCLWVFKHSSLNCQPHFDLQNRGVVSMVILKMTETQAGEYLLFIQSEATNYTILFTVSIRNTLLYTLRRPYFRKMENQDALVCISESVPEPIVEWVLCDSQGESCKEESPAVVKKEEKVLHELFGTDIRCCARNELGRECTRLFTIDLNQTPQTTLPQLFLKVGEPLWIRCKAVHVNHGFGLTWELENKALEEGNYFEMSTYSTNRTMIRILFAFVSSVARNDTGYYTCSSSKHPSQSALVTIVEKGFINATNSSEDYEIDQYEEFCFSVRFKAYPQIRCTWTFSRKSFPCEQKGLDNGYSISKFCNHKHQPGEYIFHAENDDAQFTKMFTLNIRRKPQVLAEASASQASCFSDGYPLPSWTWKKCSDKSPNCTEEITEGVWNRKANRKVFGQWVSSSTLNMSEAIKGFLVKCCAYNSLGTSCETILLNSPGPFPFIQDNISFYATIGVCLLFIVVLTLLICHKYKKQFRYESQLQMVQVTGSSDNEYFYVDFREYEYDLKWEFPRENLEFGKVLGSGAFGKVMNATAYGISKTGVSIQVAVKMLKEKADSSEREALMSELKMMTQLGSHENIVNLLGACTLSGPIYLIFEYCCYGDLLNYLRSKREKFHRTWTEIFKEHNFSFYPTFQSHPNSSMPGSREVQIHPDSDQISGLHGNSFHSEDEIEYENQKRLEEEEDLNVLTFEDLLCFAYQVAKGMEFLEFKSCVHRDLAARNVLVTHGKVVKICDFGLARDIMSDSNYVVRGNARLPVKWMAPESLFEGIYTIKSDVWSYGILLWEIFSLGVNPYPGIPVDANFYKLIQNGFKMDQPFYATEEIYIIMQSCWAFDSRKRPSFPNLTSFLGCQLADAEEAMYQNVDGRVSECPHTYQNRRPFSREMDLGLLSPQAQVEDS

MOLM-13 [23] = assay: Antitumor activity against human MOLM-13 cells xenografted BALB/c mouse assessed as tumor growth inhibition at 10 mg/kg, IG qd administered 5 days a week and measured on day 9; type: functional; conditions: MOLM-13, po, 216 h, time 9 day, read-out: TGI
[24] = Metabolic stability in mouse liver microsome incubated upto 120 mins in presence of NADPH by HPLC analysis; type: ADME; conditions: microsomes, 2 h
MOLM-13 [25] = assay: Induction of apoptosis in human MOLM-13 cells assessed as caspase-3 activation; type: functional, cell-based; conditions: dose 0.1 µM
MOLM-13 [26] = assay: Inhibition of ERK1/2 phosphorylation in human MOLM-13 cells at 0.1 microM by Western blot analysis; type: cell-based
[27] = Toxicity in BALB/c mouse xenografted with human MOLM-13 cells assessed as lung damage at 10 mg/kg, IG qd administered 5 days a week and measured on day 9 by H and E staining based analysis; type: organism-based; conditions: in vivo, po, 216 h, time 9 day
MOLM-13 [28] = assay: Antiproliferative activity against human MOLM-13 cells incubated for 48 hrs; conditions: MOLM-13, 48 h
[29] = Stability in mouse plasma incubated upto 24 hrs by HPLC analysis; type: ADME, cell-free
[30] = Toxicity in BALB/c mouse xenografted with human MOLM-13 cells assessed as kidney damage at 10 mg/kg, IG qd administered 5 days a week and measured on day 9 by H and E staining based analysis; type: organism-based; conditions: in vivo, po, 216 h, time 9 day
MOLM-13 [31] = assay: Inhibition of STAT5 phosphorylation in human MOLM-13 cells at 0.01 to 0.1 microM by Western blot analysis; type: cell-based; conditions: dose 0.01-0.1 µM
KG-1 = assay: Antiproliferative activity against human KG-1 cells incubated for 48 hrs; conditions: KG-1, 48 h
[32] = target: Receptor-type tyrosine-protein kinase FLT3 (Homo sapiens) (UniProt P36888); assay: Inhibition of FLT3 phosphorylation in human MOLM-13 cells at 0.001 to 0.1 microM by Western blot analysis; type: cell-based; conditions: dose 0.001-0.1 µM
THP-1 = assay: Antiproliferative activity against human THP-1 cells incubated for 48 hrs; conditions: THP-1, 48 h

Structure (SMILES): O=C(CCCCCCC(=O)Nc1ccccc1)NO [VORINOSTAT]
- IC50 at 48 h [1]: 2.21 µM
- Activity (MOLM-13 [2]): 2.01%
- Activity (MOLM-13 [3]): 64.51%
- Activity (MOLM-13 [4]): 0.88%
- Activity (MOLM-13 [5]): 14.8%
- Activity (MOLM-13 [6]): 7.24%
- Activity (MOLM-13 [7]): 7.58%
- Activity [8]: Non-Toxic
- Activity (MOLM-13 [9]): 35%
- Activity (MOLM-13 [10]): 46.8%
- Activity (MOLM-13 [11]): 28.26%
- Activity [12]: Non-Toxic
- Activity (MOLM-13 [13]): 0.18%
- Activity (MOLM-13 [14]): 43.26%
- Activity (MOLM-13 [15]): 83%
- Activity (MOLM-13 [16]): 49.16%
- Activity [17]: Non-Toxic
- Activity (MOLM-13 [18]): 17.4%

Structure (SMILES): CCc1nc(C(N)=O)c(Nc2ccc(N3CCN(CCCCCCCC(=O)NO)CC3)c(OC)c2)nc1NC1CCOCC1
- IC50 at 48 h [1]: 3.05 µM
- inhibition (MOLM-13 [19]): Active
- Activity (MOLM-13 [2]): 16.6%
- Activity (MOLM-13 [20]): Active
- Activity (MOLM-13 [5]): 43.5%
- Activity (MOLM-13 [7]): 4.12%
- IC50 (K562): 0.49 µM
- Activity (Mitochondrial membrane): Dose-Dependent Effect
- Activity [21]: Non-Toxic
- IC50 [22]: 0.0006 µM
- inhibition in vivo at 10 mg/kg (MOLM-13 [23]): 65.3%
- Activity (MOLM-13 [13]): 0.54%
- Activity (MOLM-13 [14]): 20.04%
- viability at 0.1 µM (MOLM-13 [15]; Homo sapiens, MOLM-13, read-out: Activity): 39.4%
- Stability [24]: Stable
- Activity (MOLM-13 [25]): Dose-Dependent Effect
- inhibition (MOLM-13 [26]): Active
- Activity [27]: Non-Toxic
- Activity (MOLM-13 [16]): 75.85%
- IC50 (MOLM-13 [28]): 0.008 µM
- Stability [29]: Stable
- Activity [30]: Non-Toxic
- inhibition (MOLM-13 [31]): Active
- IC50 (KG-1): 0.66 µM
- inhibition [32]: Active
- IC50 (THP-1): 0.65 µM
